{"source": "patent US8309546B2", "about": "“Morpholinopurine derivatives” (Daiichi Sankyo Company, Limited, priority 2008, dated 2012)", "key": {"[1]": {"system": "human ovary cancer cell strain IGROV1", "assay": "Cell growth inhibition test (MTT), IGROV1", "format": "cell-based", "conditions": "IGROV-1, 72 h, IGROV1, 3 days culture, read-out: concentration exhibiting anti-cell effect (GI50)", "procedure,_shortened": "(§1)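 MTT read-out at 540 nm after 4 h formazan formation gives living cell count following 3-day compound exposure at 37° C, 5% CO2. Seeding: 5000 AN3CA, 1000 IGROV1, 5000 HT29 cells/well. Growth rate T/C % = 100×[(B−C)/(A−C)], with C taken before dosing; GI50 = concentration giving 50% growth.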"}, "[2]": {"system": "S6 (serine 235 and 236) phosphorylation in AN3CA tumor", "assay": "S6 phosphorylation inhibition assay in xenograft", "format": "in vivo, female nude mouse", "conditions": "Mus musculus, AN3-CA, oral, 6 hr after dosing", "procedure,_shortened": "(§2)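 AN3CA human endometrial cancer cells grown as subcutaneous xenografts in female nude mice; compound dosed orally at a set concentration, tumors excised after a set time. Tumor lysates at equal protein were western blotted for p-Akt(T308) and p-S6(S235/236). Inhibition (%) = 100−100×(treated/untreated phospho signal).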"}, "[3]": {"system": "Akt (threonine 308) phosphorylation in AN3CA tumor", "assay": "Akt phosphorylation inhibition assay in xenograft", "format": "in vivo, female nude mouse", "conditions": "Mus musculus, AN3-CA, oral, 6 hr after dosing", "procedure,_shortened": "as §2"}, "[4]": {"system": "human endometrial cancer cell strain AN3CA", "assay": "Cell growth inhibition test (MTT), AN3CA", "format": "cell-based", "conditions": "AN3-CA, 72 h, 3 days culture, read-out: concentration exhibiting anti-cell effect (GI50)", "procedure,_shortened": "as §1"}, "[5]": {"system": "human colon cancer cell strain HT29", "assay": "Cell growth inhibition test (MTT), HT29", "format": "cell-based", "conditions": "HT-29, 72 h, HT29, 3 days culture, read-out: concentration exhibiting anti-cell effect (GI50)", "procedure,_shortened": "as §1"}, "[6]": {"molecular_target": "PI3Kα (Homo sapiens, UniProt P42336)", "sequence (P42336 whole entry, species assumed)": "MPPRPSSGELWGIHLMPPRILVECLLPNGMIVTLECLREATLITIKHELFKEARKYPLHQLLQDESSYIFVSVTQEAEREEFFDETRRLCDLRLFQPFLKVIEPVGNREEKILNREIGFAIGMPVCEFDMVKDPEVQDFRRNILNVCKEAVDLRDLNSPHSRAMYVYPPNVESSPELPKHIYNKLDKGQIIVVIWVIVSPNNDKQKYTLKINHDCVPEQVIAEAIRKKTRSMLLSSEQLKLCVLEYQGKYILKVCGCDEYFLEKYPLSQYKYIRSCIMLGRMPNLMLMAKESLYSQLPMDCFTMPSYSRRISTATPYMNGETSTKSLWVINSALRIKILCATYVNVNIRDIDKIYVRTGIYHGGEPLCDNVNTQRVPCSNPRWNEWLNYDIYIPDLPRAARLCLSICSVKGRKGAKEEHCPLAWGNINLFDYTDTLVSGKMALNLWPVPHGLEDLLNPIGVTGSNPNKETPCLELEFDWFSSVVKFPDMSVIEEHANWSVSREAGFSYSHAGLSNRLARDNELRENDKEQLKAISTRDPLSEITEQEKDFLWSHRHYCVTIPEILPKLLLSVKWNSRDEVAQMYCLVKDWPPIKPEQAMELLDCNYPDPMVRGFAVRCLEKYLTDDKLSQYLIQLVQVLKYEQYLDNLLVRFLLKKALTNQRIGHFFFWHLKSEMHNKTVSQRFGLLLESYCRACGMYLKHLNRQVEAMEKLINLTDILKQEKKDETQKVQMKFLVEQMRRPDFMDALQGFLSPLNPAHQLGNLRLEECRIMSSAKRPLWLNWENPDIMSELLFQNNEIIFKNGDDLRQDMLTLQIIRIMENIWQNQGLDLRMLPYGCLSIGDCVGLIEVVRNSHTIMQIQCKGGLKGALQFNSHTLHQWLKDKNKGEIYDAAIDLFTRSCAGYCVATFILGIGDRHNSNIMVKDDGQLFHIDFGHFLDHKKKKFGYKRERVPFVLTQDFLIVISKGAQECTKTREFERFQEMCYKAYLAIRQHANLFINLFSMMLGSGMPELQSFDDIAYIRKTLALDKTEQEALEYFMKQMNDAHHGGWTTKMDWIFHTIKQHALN", "sequence (P27986 whole entry partner, species assumed)": "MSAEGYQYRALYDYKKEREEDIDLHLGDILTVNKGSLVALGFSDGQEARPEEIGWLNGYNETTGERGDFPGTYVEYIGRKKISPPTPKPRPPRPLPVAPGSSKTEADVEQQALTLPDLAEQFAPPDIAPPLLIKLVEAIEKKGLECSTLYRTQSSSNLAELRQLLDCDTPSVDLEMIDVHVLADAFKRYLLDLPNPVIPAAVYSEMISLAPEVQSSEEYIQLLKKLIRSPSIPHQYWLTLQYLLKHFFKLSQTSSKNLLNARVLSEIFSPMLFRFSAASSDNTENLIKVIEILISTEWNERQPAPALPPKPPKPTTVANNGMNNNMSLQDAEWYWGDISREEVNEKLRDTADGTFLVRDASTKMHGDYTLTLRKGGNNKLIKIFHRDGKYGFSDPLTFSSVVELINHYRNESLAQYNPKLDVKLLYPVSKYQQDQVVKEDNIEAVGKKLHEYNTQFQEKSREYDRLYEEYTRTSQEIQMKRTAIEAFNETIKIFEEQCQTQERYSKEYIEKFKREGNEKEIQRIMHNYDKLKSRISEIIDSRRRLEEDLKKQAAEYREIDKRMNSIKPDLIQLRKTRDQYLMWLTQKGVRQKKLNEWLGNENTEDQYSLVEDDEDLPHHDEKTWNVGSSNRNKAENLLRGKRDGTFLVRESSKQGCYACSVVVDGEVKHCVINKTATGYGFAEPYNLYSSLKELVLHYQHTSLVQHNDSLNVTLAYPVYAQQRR", "assay": "PI3K kinase activity inhibition assay", "format": "biochemical", "conditions": "Kinase-Glo Plus ATP detection, read-out: IC50 against PI3K", "procedure,_shortened": "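PI3Kα (50 nM solution) was reacted with 30 μM ATP and 45 μM PIP2 solutions, each in HEPES pH 7.4 with MgCl2 and DTT, for 2 h at room temperature. Remaining ATP was measured by Kinase-Glo Plus luminescence, and inhibition was derived from ATP consumed. IC50 was taken from curve fitting of the serial dilutions.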"}}, "data": [{"compound": "C[C@@H]1CN(c2nc3c(N4CCOCC4)nc(-c4cnc(N)nc4)nc3n2CC2CC2)CCN1C(=O)[C@@H](C)O", "note": "[Example 114, (2R)-1-{(2R)-4-[2-(2-Aminopyrimidin-5-yl)-9-(cyclopropylmethyl)-6-morpholin-4-yl-9H-purin-8-yl]-2-methylpiperazin-1-yl}-1-oxopropan-2-ol]", "values": [{"measurement": "GI50", "setting": "[1]", "result": "≤ 5", "unit": "µM"}, {"measurement": "inhibition at 10 mg/kg", "setting": "[2]", "result": "> 90", "unit": "%"}, {"measurement": "inhibition at 10 mg/kg", "setting": "[3]", "result": "> 60", "unit": "%"}, {"measurement": "GI50", "setting": "[4]", "result": "≤ 5", "unit": "µM"}, {"measurement": "GI50", "setting": "[5]", "result": "≤ 5", "unit": "µM"}, {"measurement": "IC50", "setting": "[6]", "result": "< 0.01", "unit": "µM"}]}, {"compound": "CC(=O)N1[C@H](C)CN(c2nc3c(N4CCOCC4)nc(-c4cnc(N)nc4)nc3n2CC(F)(F)F)C[C@@H]1C", "note": "[Example 115, 5-[8-(4-Acetyl-cis-3,5-dimethylpiperazin-1-yl)-6-morpholin-4-yl-9-(2,2,2-trifluoroethyl)-9H-purin-2-yl]pyrimidin-2-amine]", "values": [{"measurement": "GI50", "setting": "[1]", "result": "≤ 5", "unit": "µM"}, {"measurement": "inhibition at 10 mg/kg", "setting": "[2]", "result": "> 90", "unit": "%"}, {"measurement": "inhibition at 10 mg/kg", "setting": "[3]", "result": "> 60", "unit": "%"}, {"measurement": "GI50", "setting": "[4]", "result": "≤ 5", "unit": "µM"}, {"measurement": "GI50", "setting": "[5]", "result": "≤ 5", "unit": "µM"}, {"measurement": "IC50", "setting": "[6]", "result": "< 0.01", "unit": "µM"}]}, {"compound": "C[C@@H]1CN(c2nc3c(N4CCOCC4)nc(-c4cnc(N)nc4)nc3n2CC(F)(F)F)C[C@H](C)N1C=O", "note": "[Example 116, 4-[2-(2-Aminopyrimidin-5-yl)-6-morpholin-4-yl-9-(2,2,2-trifluoroethyl)-9H-purin-8-yl]-cis-2,6-dimethylpiperazine-1-carboaldehyde]", "values": [{"measurement": "GI50", "setting": "[1]", "result": "≤ 5", "unit": "µM"}, {"measurement": "inhibition at 10 mg/kg", "setting": "[2]", "result": "> 90", "unit": "%"}, {"measurement": "inhibition at 10 mg/kg", "setting": "[3]", "result": "> 60", "unit": "%"}, {"measurement": "GI50", "setting": "[4]", "result": "≤ 5", "unit": "µM"}, {"measurement": "GI50", "setting": "[5]", "result": "≤ 5", "unit": "µM"}, {"measurement": "IC50", "setting": "[6]", "result": "< 0.01", "unit": "µM"}]}, {"compound": "CCC(=O)N1CCN(c2nc3c(N4CCOCC4)nc(-c4cnc(N)nc4)nc3n2CC(F)(F)F)CC1", "note": "[Example 117, 5-[6-Morpholin-4-yl-8-(4-propionylpiperazin-1-yl)-9-(2,2,2-trifluoroethyl)-9H-purin-2-yl]pyrimidin-2-amine]", "values": [{"measurement": "GI50", "setting": "[1]", "result": "≤ 5", "unit": "µM"}, {"measurement": "inhibition at 10 mg/kg", "setting": "[2]", "result": "70 to 90", "unit": "%"}, {"measurement": "inhibition at 10 mg/kg", "setting": "[3]", "result": "30 to 60", "unit": "%"}, {"measurement": "GI50", "setting": "[4]", "result": "≤ 5", "unit": "µM"}, {"measurement": "GI50", "setting": "[5]", "result": "≤ 5", "unit": "µM"}, {"measurement": "IC50", "setting": "[6]", "result": "< 0.01", "unit": "µM"}]}, {"compound": "CC(=O)N1CCN(c2nc3c(N4CCOCC4)nc(-c4cnc(N)nc4)nc3n2CC(F)(F)F)CC12CC2", "note": "[Example 119, 5-[8-(4-Acetyl-4,7-diazaspiro[2.5]oct-7-yl)-6-morpholin-4-yl-9-(2,2,2-trifluoroethyl)-9H-purin-2-yl]pyrimidin-2-amine]", "values": [{"measurement": "GI50", "setting": "[1]", "result": "≤ 5", "unit": "µM"}, {"measurement": "inhibition at 10 mg/kg", "setting": "[2]", "result": "> 90", "unit": "%"}, {"measurement": "inhibition at 10 mg/kg", "setting": "[3]", "result": "30 to 60", "unit": "%"}, {"measurement": "GI50", "setting": "[4]", "result": "≤ 5", "unit": "µM"}, {"measurement": "GI50", "setting": "[5]", "result": "≤ 5", "unit": "µM"}, {"measurement": "IC50", "setting": "[6]", "result": "< 0.01", "unit": "µM"}]}, {"compound": "CC(C)Cn1c(N2CCN(C(=O)CO)CC2)nc2c(N3CCOC[C@@H]3C)nc(-c3cnc(N)nc3)nc21", "note": "[Example 130, 2-(4-{2-(2-Aminopyrimidin-5-yl)-9-isobutyl-6-[(3S)-3-methylmorpholin-4-yl]-9H-purin-8-yl}piperazin-1-yl)-2-oxoethanol]", "values": [{"measurement": "GI50", "setting": "[1]", "result": "≤ 5", "unit": "µM"}, {"measurement": "inhibition at 10 mg/kg", "setting": "[2]", "result": "> 90", "unit": "%"}, {"measurement": "inhibition at 10 mg/kg", "setting": "[3]", "result": "30 to 60", "unit": "%"}, {"measurement": "GI50", "setting": "[4]", "result": "≤ 5", "unit": "µM"}, {"measurement": "GI50", "setting": "[5]", "result": "≤ 5", "unit": "µM"}, {"measurement": "IC50", "setting": "[6]", "result": "0.01 to 0.02", "unit": "µM"}]}, {"compound": "CC(C)Cn1c(N2CCN(C(=O)[C@H](C)O)CC2)nc2c(N3CCOC[C@@H]3C)nc(-c3cnc(N)nc3)nc21", "note": "[Example 131, (2S)-1-(4-{2-(2-Aminopyrimidin-5-yl)-9-isobutyl-6-[(3S)-3-methylmorpholin-4-yl]-9H-purin-8-yl}piperazin-1-yl)-1-oxopropan-2-ol]", "values": [{"measurement": "GI50", "setting": "[1]", "result": "≤ 5", "unit": "µM"}, {"measurement": "inhibition at 10 mg/kg", "setting": "[2]", "result": "> 90", "unit": "%"}, {"measurement": "inhibition at 10 mg/kg", "setting": "[3]", "result": "> 60", "unit": "%"}, {"measurement": "GI50", "setting": "[4]", "result": "≤ 5", "unit": "µM"}, {"measurement": "GI50", "setting": "[5]", "result": "≤ 5", "unit": "µM"}, {"measurement": "IC50", "setting": "[6]", "result": "0.01 to 0.02", "unit": "µM"}]}, {"compound": "CC(C)Cn1c(N2CCN(C=O)CC2)nc2c(N3CCOC[C@@H]3C)nc(-c3cnc(N)nc3)nc21", "note": "[Example 132, 4-{2-(2-Aminopyrimidin-5-yl)-9-isobutyl-6-[(3S)-3-methylmorpholin-4-yl]-9H-purin-8-yl}piperazine-1-carboaldehyde]", "values": [{"measurement": "GI50", "setting": "[1]", "result": "≤ 5", "unit": "µM"}, {"measurement": "inhibition at 10 mg/kg", "setting": "[2]", "result": "> 90", "unit": "%"}, {"measurement": "inhibition at 10 mg/kg", "setting": "[3]", "result": "> 60", "unit": "%"}, {"measurement": "GI50", "setting": "[4]", "result": "≤ 5", "unit": "µM"}, {"measurement": "GI50", "setting": "[5]", "result": "≤ 5", "unit": "µM"}, {"measurement": "IC50", "setting": "[6]", "result": "< 0.01", "unit": "µM"}]}, {"compound": "CNc1ncc(-c2nc(N3CCOCC3)c3nc(N4CCN(C(C)=O)CC4)n(CC(F)(F)F)c3n2)cn1", "note": "[Example 134, 5-[8-(4-Acetylpiperazin-1-yl)-6-morpholin-4-yl-9-(2,2,2-trifluoroethyl)-9H-purin-2-yl]-N-methylpyrimidin-2-amine]", "values": [{"measurement": "GI50", "setting": "[1]", "result": "≤ 5", "unit": "µM"}, {"measurement": "inhibition at 10 mg/kg", "setting": "[2]", "result": "> 90", "unit": "%"}, {"measurement": "inhibition at 10 mg/kg", "setting": "[3]", "result": "30 to 60", "unit": "%"}, {"measurement": "GI50", "setting": "[4]", "result": "≤ 5", "unit": "µM"}, {"measurement": "GI50", "setting": "[5]", "result": "≤ 5", "unit": "µM"}, {"measurement": "IC50", "setting": "[6]", "result": "< 0.01", "unit": "µM"}]}]}
